Data as given in patent US4857513A, “Diphosphonic acid compounds, processes for the preparation thereof and pharmaceutical composition comprising the same” (Fujisiwa Pharmaceutical Co., Ltd., priority 1986, dated 1989).
Structures can show the parent of a compound that is named as a salt.

Test system: Neonatal calvaria (hPTH (1-34)-treated)
Test: Inhibition of hPTH (1-34)-stimulated bone resorption in cultured neonatal rat calvaria (calcium accumulation in medium at 6 days)
Type: cell-based, rat (Wistar)
Conditions: 144 h, hPTH (1-34) 1×10^-8 M, 37° C.; for inhibition at 1 µM: Dose 1 × 10^-6 M; for inhibition at 0.1 µM: Dose 1 × 10^-7 M
Protocol: Neonatal calvaria were dissected aseptically from 1-2 day old rat (Wistar), washed in Dulbecco's modified eagle's medium and divided along the sagittal suture. The calvaria halves were pooled and randomized in the different groups. The calvaria halves were cultured separately as free-floating bones in multi-well dishes containing a 2 ml of Dulbecco's modified eagle's medium, with 10% heat-inactivated (56° C. for 1 hr) fetal calf serum. Treatment of hPTH (1-34) (1×10^-8 M) and the Test Compound (1×10^-7 or 1×10^-6 M) was begun at zero time. All incubations were performed at 37° C., under an atmosphere of 95% air and 5% CO2 for 6 days. Bone resporption was determined by measuring the accumulation of calcium in the medium at 6 days. The concentration of total calcium in culture medium was measured by OCPC method with a spectrophotometer (Hitachi model U-3200, Tokyo, Japan).
As comparative data, similar tests were conducted using culture medium with hPTH (1×10^-8 M) only, and culture medium without both hPTH and Test Compound.
Test results were represented in terms of percentage of inhibition calculated by the following formula: [formula] CD : the concentration of total calcium in culture medium treated with both hPTH and Test Compound
CO : the concentration of total calcium in control culture medium without both hPTH and Test Compound
CP : the concentration of total calcium in culture medium treated with hPTH only

For O=P(O)(O)C(C(=S)Nc1cc2ccccc2s1)P(=O)(O)O [Test Compound (d), Disodium salt of [N-(2-benzo[b]thienyl)thiocarbamoylmethylene]bis(phosphonic acid)], the inhibition at 1 µM was 59.7%.

O=C(NC(P(=O)(O)O)P(=O)(O)O)c1cc2ccccc2s1 [Test Compound (i), Bis(tert-butylamine)salt of [(2-benzo[b]thiophenecarboxamido)methylene]bis(phosphonic acid)] was tested, and the inhibition at 0.1 µM was 45%.

O=P(O)(O)C(C(=S)Nc1ccccc1)P(=O)(O)O [Test Compound (a), Tris(tert-butylamine) salt of [N-(phenyl)thiocarbamoylmethylene]bis(phosphonic acid)] showed an inhibition at 1 µM of 66.3% and an inhibition at 0.1 µM of 54.3%.

Molecule CS(=O)(=O)Nc1cccc(NC(=S)C(P(=O)(O)O)P(=O)(O)O)c1 [Test Compound (l), Disodium salt of [N-(3-mesylaminophenyl)thiocarbamoylmethylene]bis(phosphonic acid)] has an inhibition at 1 µM of 52.4%.

For O=P(O)(O)C(C(=S)Nc1cccc(C(F)(F)F)c1)P(=O)(O)O [Test Compound (f), Disodium salt of [N-(3-trifluoromethylphenyl)thiocarbamoylmethylene]bis(phosphonic acid)], the inhibition at 1 µM was 68.9%.

O=P(O)(O)C(C(=S)Nc1ccc(Cl)cc1)P(=O)(O)O [Test Compound (c), Tris(tert-butylamine)salt of [N-(4-chlorophenyl)thiocarbamoylmethylene]bis(phosphonic acid)] showed an inhibition at 1 µM of 57%.

Work on O=P(O)(O)C(C(=S)Nc1ccc(Cl)c(C(F)(F)F)c1)P(=O)(O)O [Test Compound (g), Disodium salt of [N-(4-chloro-3-trifluoromethylphenyl)thiocarbamoylmethylene]bis(phosphonicacid)] yielded an inhibition at 1 µM of 112%.

With O=C(NC(P(=O)(O)O)P(=O)(O)O)c1ccc2ccccc2n1 [Test Compound (j), Tris(tert-butylamine)salt of [(2-quinolinecarboxamido)methylene]bis(phosphonic acid)] the inhibition at 1 µM was 53.8% and the inhibition at 0.1 µM was 46.9%.

O=P(O)(O)C(C(=S)Nc1ccc(C(F)(F)F)cc1)P(=O)(O)O [Test Compound (e), Disodium salt of [N-(4-trifluoromethylphenyl)thiocarbamoylmethylene]bis(phosphonic acid)] was tested, and the inhibition at 1 µM was 65.9%.

With COc1ccc(NC(=S)C(P(=O)(O)O)P(=O)(O)O)cc1C(F)(F)F [Test Compound (h), Disodium salt of [N-(4-methoxy-3-trifluoromethylphenyl)thiocarbamoylmethylene]bis(phosphonic acid)] the inhibition at 1 µM was 77.7%.

O=P(O)(O)C(NS(=O)(=O)c1ccc(Cl)cc1)P(=O)(O)O [Test Compound (k), Disodium salt of [(4-chlorophenyl)sulfonylaminomethylene]bis(phosphonicacid)] gave an inhibition at 1 µM of 71%.

Work on O=C(Nc1ccc(Cl)cc1)C(P(=O)(O)O)P(=O)(O)O [Test Compound (b), Tris(tert-butylamine) salt of [N-(4-chlorophenyl)carbamoylmethylene]bis(phosphonic acid)] yielded an inhibition at 1 µM of 56.9% and an inhibition at 0.1 µM of 46.6%.
